Results on 2 compounds are retold here after article PMC12430443, “Discovery of Novel Benzamide-Based Sigma-1 Receptor Agonists with Enhanced Selectivity and Safety” (Molecules, 2025).

In brackets after ≈: the same amount, converted by molar mass. Like-named read-outs stand apart in the source and are kept apart here.

The IC50 is the concentration at which inhibition is half-maximal. As usually defined, the inhibition is the drop in the measured response relative to a control, in per cent. Broadly, the solubility is the concentration that dissolves in the medium under given conditions.

Series [1] has as its target T1, hERG channel (Homo sapiens, UniProt Q12809).
T1 construct: host or cells: CHO-K1
Kind of series: hERG automated whole-cell patch-clamp in hERG CHO-K1 cells. Type of series: cell-based. The following applies: for hERG inhibition IC50 / IC50: tail current, hERG CHO-K1 cells, 0.1 to 10 µM, n = 2; for IC50: read-out: hERG inhibition IC50. On the procedure:
Cardiac toxicity is a leading cause of drug development failure. Early safety profiling includes evaluation of the potassium voltage-gated channel subfamily H member 2 (KCNH2 or hERG) channel, the only in vitro assay mandated by regulatory agencies to predict proarrhythmic risk. […] Importantly, an IC50 (hERG)/Ki (σ1) ratio exceeding 100 is advised for cardiac safety; all compounds met this criterion.
Cardiotoxicity analysis was performed by Eurofins Cerep (Poitiers, France) as described in [41]. Rapidly, hERG CHO-K1 cells were used to perform automated whole-cell patch-clamp. Compounds were evaluated in duplicate from 0.1 to 10 µM. The degree of inhibition (%) was determined by measuring the tail current amplitude, which was induced by a one-second test pulse to −40 mV after a two-second pulse to +20 mV, before and after drug incubation for 5 min at room temperature. After normalization, activities were expressed as the % inhibition of tail current. […] The concentration–response relationship of each compound was constructed from the percentage reductions in current amplitude by sequential concentrations.

Series [2] can be described thus: Plasma stability in mouse plasma. The class given is in vitro ADME. The following applies: male CD-1 mouse plasma, 37 °C, read-out: Mouse plasma t1/2 (converted). On the procedure:
(§1) Solubility and stability remained unchanged in simulated gastric fluid (SGF) and simulated intestinal fluid (SIF), which mimic gastrointestinal digestion. Intestinal permeability was assessed using a two-chamber system with apical (A, pH 6.5) and basolateral (B, pH 7.4) compartments, representing the luminal and blood/mesenteric lymph sides of the gastrointestinal tract, respectively. […] The efflux ratios for both compounds ranged between 1 and 2, indicating improved permeability relative to the reference compound 1.
Plasma stability was evaluated by M2SV (Lille, France) in duplicate. Male CD-1 mouse plasma (lithium-heparinized; Sera Laboratories International Ltd. BioIVT, West Sussex, UK) was pre-incubated for 10 min at 37 °C before addition of the test compound (final concentration 10 μM, 0.1% DMSO). At 0, 60, 1440, and 2880 min, aliquots were transferred to chilled tubes containing acetonitrile and propranolol (1 μM) as internal standard.

Series [3] addresses T2, CYP2C8 (Homo sapiens, UniProt P10632).
T2 construct: tissue Eurofins Cerep (assay provider); host or cells: human liver microsomes
Kind of series: CYP inhibition in human liver microsomes. The class given is in vitro ADME. The following applies: n = 2, read-out: CYP inhibition 2C8. The procedure:
(§2) Microsomal stability was evaluated using human liver microsomes at 10 µM (Table 3). […] Since cytochrome P450 (CYP) enzymes—especially families 1 to 3—play major roles in drug metabolism, CYP inhibition was tested against the human isoforms CYP1A, 2B6, 2C8, 2C9, 2C19, 2D6, and 3A, as recommended by FDA and EMA guidelines. […] Membrane transport proteins, including the ATP-binding cassette (ABC) and solute carrier (SLC) families, affect drug pharmacokinetics and potential drug–drug interactions. The inhibitory effects of compounds 2 and 6 were assessed against five ABC transporters (P-gp, BCRP, MRP1, MRP2, and MRP3) and seven SLC transporters (OAT1, OAT3, OATP1B1, OCT1, OCT2, ASBT, and NTCP).
(§3) Standardized in vitro ADME experiments were performed by Eurofins Cerep (Poitiers, France). Solubility assays were performed in PBS at pH 7.4, but also in simulated gastric fluid (SGF) and intestinal fluid (SIF), through the classical shake-flask method described by Lipinski et al., using HPLC-UV/VIS technology. The results were expressed in µM. The compound was classically evaluated at 10 µM for all of the ADME analyses. Bidirectional permeability (apical A to basolateral B pH 6.5/7.4, and basolateral B to apical A pH 7.4/6.5) was assessed in the epithelial colorectal adenocarcinoma cell line (Caco-2 cell line). The results were expressed as ×10^−6 cm/s (Papp) and as % recovery. The efflux ratio, i.e., Papp (B→A)/Papp(A→B), was calculated. Plasma protein binding was analyzed by HPLC-MS/MS after 4 h of incubation at 37 °C, as described by Banker et al.. Concentration was evaluated by LC/MS-MS. CYP inhibition was performed in human liver microsomes as described in [28]. Analysis of the respective metabolites was performed by HPLC-MS/MS. Transporter inhibition analysis was also performed in overexpressing cell lines. Respective metabolites for each specific transporter substrate were analyzed by fluorometry or scintillation counting, and % inhibition of control values were calculated. P-glycoprotein transporter substrate assessment was performed by bidirectional permeability analysis (apical A to basolateral B pH 7.4/7.4, and basolateral B to apical A pH 7.4/7.4) in the Caco-2 cell line with and without verapamil, as described in [26]. The results were expressed as ×10^−6 cm/s (Papp) and as % recovery. The efflux ratio was calculated as Papp(B→A)/Papp(A→B). CYP450 induction was assessed in human hepatocytes by measuring the mRNA levels of seven CYP isoforms via qPCR, as described in [40]. The compound was tested at 1, 10, and 100 μM, and fold-induction values were compared with predefined cut-off thresholds for each isoform and hepatocyte lot.
Background: Microsomes from liver hold many membrane-bound enzymes, among them those of drug oxidation.

The test system of series [4] is CYP3A. The series can be described thus: CYP inhibition in human liver microsomes. The class given is in vitro ADME. The conditions noted are these: n = 2, read-out: CYP inhibition 3A. The procedure: as §2, §3
In series [5] the target is T3, CYP2C19 (Homo sapiens, UniProt P33261).
T3 construct: tissue Eurofins Cerep (assay provider); host or cells: human liver microsomes
T3 sequence (P33261 whole entry): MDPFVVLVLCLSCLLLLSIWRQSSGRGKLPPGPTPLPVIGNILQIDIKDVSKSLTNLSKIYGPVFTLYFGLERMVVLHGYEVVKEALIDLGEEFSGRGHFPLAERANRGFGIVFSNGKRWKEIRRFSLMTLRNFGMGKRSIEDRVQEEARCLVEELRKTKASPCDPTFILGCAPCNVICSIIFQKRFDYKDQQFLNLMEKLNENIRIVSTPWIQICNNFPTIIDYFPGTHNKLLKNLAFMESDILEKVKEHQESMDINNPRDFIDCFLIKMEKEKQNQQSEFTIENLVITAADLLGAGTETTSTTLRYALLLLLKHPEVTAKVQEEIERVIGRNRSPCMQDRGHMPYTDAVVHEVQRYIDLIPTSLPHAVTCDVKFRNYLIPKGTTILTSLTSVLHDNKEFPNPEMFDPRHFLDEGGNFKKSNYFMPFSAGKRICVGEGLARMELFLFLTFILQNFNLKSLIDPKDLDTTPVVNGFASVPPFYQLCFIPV
Kind of series: CYP inhibition in human liver microsomes. The following applies: n = 2, read-out: CYP inhibition 2C19. The class given is in vitro ADME. On the procedure: as §2, §3

Series [6] has as its system CYP1A. Kind of series: CYP inhibition in human liver microsomes. The class given is in vitro ADME. The conditions noted are these: n = 2, read-out: CYP inhibition 1A. The procedure:
as §2, §3

Series [7] has as its target T4, CYP2C9 (Homo sapiens, UniProt P11712).
T4 construct: tissue Eurofins Cerep (assay provider); host or cells: human liver microsomes
Kind of series: CYP inhibition in human liver microsomes. The following applies: n = 2, read-out: CYP inhibition 2C9. The class given is in vitro ADME. The procedure:
as §2, §3

The target in series [8] is T5, CYP2D6 (Homo sapiens, UniProt P10635).
T5 construct: tissue Eurofins Cerep (assay provider); host or cells: human liver microsomes
T5 sequence (P10635 whole entry): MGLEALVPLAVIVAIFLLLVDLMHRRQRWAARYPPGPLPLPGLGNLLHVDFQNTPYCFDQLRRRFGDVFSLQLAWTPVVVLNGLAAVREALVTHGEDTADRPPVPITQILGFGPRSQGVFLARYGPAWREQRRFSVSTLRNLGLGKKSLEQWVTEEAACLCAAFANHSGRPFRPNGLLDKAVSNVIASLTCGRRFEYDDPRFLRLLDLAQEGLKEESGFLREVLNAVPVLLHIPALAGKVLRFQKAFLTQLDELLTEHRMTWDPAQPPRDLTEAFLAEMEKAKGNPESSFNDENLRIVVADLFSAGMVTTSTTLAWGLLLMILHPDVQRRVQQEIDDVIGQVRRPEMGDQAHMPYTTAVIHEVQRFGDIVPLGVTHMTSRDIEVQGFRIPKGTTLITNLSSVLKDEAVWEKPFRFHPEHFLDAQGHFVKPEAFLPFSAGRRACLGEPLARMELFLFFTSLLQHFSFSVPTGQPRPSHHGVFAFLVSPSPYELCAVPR
The series can be described thus: CYP inhibition in human liver microsomes. Type of series: in vitro ADME. The conditions noted are these: n = 2, read-out: CYP inhibition 2D6. The procedure:
as §2, §3

In series [9] the target is T6, CYP2B6 (Homo sapiens, UniProt P20813).
T6 construct: tissue Eurofins Cerep (assay provider); host or cells: human liver microsomes
T6 sequence (P20813 whole entry): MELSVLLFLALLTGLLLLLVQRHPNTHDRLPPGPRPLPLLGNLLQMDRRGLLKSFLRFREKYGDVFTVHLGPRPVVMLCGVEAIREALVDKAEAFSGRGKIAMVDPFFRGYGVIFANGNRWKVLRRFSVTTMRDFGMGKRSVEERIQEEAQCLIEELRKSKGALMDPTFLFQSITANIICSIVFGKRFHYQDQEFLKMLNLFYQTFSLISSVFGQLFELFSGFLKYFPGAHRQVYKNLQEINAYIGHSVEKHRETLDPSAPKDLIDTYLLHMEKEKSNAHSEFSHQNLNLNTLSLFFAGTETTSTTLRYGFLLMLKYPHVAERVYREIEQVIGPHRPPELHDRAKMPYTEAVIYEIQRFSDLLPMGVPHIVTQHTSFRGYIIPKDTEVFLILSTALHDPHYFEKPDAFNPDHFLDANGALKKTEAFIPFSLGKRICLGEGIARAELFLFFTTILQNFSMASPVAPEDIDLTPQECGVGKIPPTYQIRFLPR
The series can be described thus: CYP inhibition in human liver microsomes. The conditions noted are these: n = 2, read-out: CYP inhibition 2B6. The class given is in vitro ADME. On the procedure: as §2, §3

Series [10] in a line: Solubility, shake-flask method, HPLC-UV/VIS. Type of series: physicochemical. The conditions noted are these: thermodynamic from solid, n = 2. On the procedure:
as §1, §3

Where [11] appears, read: aqueous buffer, PBS pH 7.4, read-out: Solubility PBSpH7.4.
Where [12] appears, read: simulated gastric fluid (SGF), simulated gastric fluid, read-out: Solubility SGF.
The mark [13] stands for this setting: simulated intestinal fluid (SIF), fassgf or other biorelevant, simulated intestinal fluid, read-out: Solubility SIF.

T1 sequence (Q12809 whole entry): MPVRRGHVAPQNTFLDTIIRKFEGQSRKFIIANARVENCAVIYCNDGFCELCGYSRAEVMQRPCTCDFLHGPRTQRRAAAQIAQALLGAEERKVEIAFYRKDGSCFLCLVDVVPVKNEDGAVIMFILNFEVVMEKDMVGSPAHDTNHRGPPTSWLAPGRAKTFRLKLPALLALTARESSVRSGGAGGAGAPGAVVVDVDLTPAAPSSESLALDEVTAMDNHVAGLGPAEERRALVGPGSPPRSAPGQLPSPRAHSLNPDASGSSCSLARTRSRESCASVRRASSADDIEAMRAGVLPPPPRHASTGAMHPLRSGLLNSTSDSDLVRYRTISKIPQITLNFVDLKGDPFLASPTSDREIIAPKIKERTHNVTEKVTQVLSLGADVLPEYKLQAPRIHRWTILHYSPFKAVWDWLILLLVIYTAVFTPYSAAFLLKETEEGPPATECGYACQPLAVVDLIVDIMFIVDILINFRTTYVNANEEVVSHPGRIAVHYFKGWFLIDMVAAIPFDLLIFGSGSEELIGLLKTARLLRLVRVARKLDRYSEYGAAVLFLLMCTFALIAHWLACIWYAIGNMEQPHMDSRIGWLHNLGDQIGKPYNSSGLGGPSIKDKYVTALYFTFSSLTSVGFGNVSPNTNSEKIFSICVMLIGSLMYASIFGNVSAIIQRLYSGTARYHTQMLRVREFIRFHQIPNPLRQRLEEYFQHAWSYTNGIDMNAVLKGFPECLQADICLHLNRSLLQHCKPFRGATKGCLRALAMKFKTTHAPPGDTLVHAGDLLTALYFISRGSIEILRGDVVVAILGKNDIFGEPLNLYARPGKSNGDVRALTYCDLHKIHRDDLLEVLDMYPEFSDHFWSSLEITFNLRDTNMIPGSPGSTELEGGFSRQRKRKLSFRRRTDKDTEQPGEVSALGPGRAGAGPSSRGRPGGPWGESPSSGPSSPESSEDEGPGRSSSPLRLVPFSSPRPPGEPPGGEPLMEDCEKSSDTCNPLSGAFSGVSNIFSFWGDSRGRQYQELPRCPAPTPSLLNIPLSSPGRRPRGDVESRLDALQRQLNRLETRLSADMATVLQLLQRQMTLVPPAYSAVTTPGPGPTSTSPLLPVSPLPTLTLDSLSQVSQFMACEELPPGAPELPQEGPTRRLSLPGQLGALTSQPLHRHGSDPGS
T2 sequence (P10632 whole entry): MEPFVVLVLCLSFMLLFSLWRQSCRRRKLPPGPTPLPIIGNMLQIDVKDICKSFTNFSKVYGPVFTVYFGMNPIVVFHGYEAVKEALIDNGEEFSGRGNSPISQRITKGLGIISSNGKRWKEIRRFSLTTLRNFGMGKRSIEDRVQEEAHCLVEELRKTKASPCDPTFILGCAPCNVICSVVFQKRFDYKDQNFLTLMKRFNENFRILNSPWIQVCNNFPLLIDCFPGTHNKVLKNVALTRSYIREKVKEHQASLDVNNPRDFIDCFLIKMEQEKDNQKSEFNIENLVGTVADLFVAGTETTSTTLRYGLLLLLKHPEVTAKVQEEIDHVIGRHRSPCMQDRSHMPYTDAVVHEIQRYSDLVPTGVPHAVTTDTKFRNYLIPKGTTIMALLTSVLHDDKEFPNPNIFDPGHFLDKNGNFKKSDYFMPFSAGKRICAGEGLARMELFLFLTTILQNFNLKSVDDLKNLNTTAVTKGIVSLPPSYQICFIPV
T4 sequence (P11712 whole entry): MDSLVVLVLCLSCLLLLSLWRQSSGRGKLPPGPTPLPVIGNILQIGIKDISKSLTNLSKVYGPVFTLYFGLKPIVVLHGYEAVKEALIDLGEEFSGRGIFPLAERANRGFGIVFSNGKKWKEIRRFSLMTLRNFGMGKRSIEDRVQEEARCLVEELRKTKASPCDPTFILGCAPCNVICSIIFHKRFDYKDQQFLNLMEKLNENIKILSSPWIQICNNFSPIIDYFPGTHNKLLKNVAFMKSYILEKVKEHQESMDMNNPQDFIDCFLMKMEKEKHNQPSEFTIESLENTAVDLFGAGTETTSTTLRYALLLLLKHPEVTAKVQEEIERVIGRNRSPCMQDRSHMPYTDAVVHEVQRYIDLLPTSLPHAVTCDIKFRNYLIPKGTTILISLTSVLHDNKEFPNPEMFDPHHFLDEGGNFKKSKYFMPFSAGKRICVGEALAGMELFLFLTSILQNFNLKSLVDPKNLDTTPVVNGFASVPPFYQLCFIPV

For the compound `CN(CCC(=O)NCc1cccc(Cl)c1)Cc1ccccc1` [Compound 2, 3-(Benzylmethylamino)-N-(3-chlorobenzyl)propanamide], in series [1], the “hERG inhibition IC50” value is “micromolar range”. Moreover, the IC50 in series [1] was 6.8 µM. Also, in [2], the half-life at 10 µM is 2100 min. Moreover, the inhibition at 10 µM is -16.8% in [3]; 30.9% in series [4]; 43.9% in series [5]; 23.3% in series [6]; 13.1% in series [7]; 80.5% in series [8]. Also, in series [9], the inhibition at 10 µM is 16.9%. Further, the solubility in series [10] (setting [11]) is 167 µM (≈ 52.9 µg/mL); in series [10] (setting [12]), 186 µM (≈ 58.9 µg/mL); in series [10] (setting [13]), 181 µM (≈ 57.3 µg/mL).
Regarding `CN(CCC(=O)NCc1ccc(C#N)cc1)Cc1ccccc1` [Compound 6, 3-(Benzylmethylamino)-N-(4-cyanobenzyl)propanamide], the “IC50 (hERG)/Ki (σ1)” value in [1] (ratio) is 143. For the same compound, in series [1], the “hERG inhibition IC50” value was “micromolar range”. For the same compound, in series [1], the IC50 worked out at 0.8 µM. Further, the half-life at 10 µM in series [2] is over 2880 min. The inhibition at 10 µM in [3] is -12.1%; in series [4], 17.4%; in series [5] it was 30%; in series [6], 13.2%; in series [7], 10%; in [8], 87.7%. The inhibition at 10 µM in series [9] came to 17.7%. The results for the solubility in series [10] (setting [11]), in series [10] (setting [12]) and in [10] (setting [13]) were 190 µM (≈ 58.4 µg/mL), 178 µM (≈ 54.7 µg/mL) and 190 µM (≈ 58.4 µg/mL), respectively.
